In test [1] the test system is H929 multiple myeloma tumour line. Nature of the test: In vitro cytotoxicity, Microculture Tetrazolium Assay. Type of test: cell-based. To be noted: H929 cells, 48 hours exposure, MTT, read-out: IC50 (μM) MTT H929. How it is done:
The cytotoxicity studies were carried out on the H929 multiple myeloma tumour line.
The cells are distributed onto microplates and exposed to the test compounds for 48 hours.

The target of test [2] is Mcl-1 protein (UniProtKB primary accession number: Q07820) (Homo sapiens, UniProt Q07820). As to the kind of experiment: Inhibition of Mcl-1 by fluorescence polarisation, Method 1. The test is classed as binding. The conditions noted are these: read-out: IC50 (M) Mcl-1 FP. In short, it runs like this: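 FP competition, 11-point compound titration in 5% final DMSO; protein and labelled probe at 5 nM and 1 nM final in HEPES/NaCl/Tween 20 buffer, pH 7.4.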

Setting [3] is: fluorescence polarisation test, Method 2 values are underlined in the patent (underlining not visible here).
[4] abbreviates: fluorescence polarisation, Method 1, or Method 2.

Read-outs that look alike come from different tables or passages of the source.

Sequence of Mcl-1 protein (Q07820 whole entry): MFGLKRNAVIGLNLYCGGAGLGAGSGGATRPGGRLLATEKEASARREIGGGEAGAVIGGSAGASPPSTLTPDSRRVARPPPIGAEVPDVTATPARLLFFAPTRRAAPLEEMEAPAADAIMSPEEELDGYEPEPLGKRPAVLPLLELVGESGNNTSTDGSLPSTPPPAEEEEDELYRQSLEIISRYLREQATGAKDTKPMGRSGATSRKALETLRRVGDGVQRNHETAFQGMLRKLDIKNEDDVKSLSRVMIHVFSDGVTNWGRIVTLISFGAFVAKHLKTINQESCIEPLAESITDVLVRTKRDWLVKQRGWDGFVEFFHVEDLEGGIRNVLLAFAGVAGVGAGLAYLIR

In general, IC50 refers to the concentration that gives 50% inhibition. Regarding `COc1ccccc1CC(Oc1ncnc2sc(-c3ccco3)c(-c3ccc(OC4CCNC4)c(Cl)c3C)c12)C(=O)O` (single isomer, unassigned) [Example 306, (2R)-2-({(5Sa)-5-[3-chloro-2-methyl-4-((3R or S)-pyrrolidin-3-yloxy)phenyl]-6-(furan-2-yl)thieno[2,3-d]pyrimidin-4-yl}oxy)-3-(2-methoxyphenyl)propanoic acid], the IC50 in test [1] was 1.12 µM; in test [2] (setting [3]), 1.4e-08 M.
Regarding `C=Cc1ccc(-c2sc3ncnc(OC(Cc4ccccc4OC)C(=O)O)c3c2-c2ccc(OCCN3CCN(C)CC3)c(Cl)c2C)o1` [Example 584, (2R)-2-{[(5Sa)-5-{3-chloro-2-methyl-4-[2-(4-methylpiperazin-1-yl)ethoxy]phenyl}-6-(5-ethenylfuran-2-yl)thieno[2,3-d]pyrimidin-4-yl]oxy}-3-(2-methoxyphenyl)propanoic acid], the IC50 in test [1] (Homo sapiens, NCI-H929, 48 h) was 0.902 µM; in test [2] (setting [4]), 2.9e-08 M.
For `COc1ccccc1CC(Oc1ncnc2sc(-c3cccc(C)c3)c(-c3ccc(OCCN4CCN(C)CC4)c(Cl)c3C)c12)C(=O)O` [Example 546, (2R)-2-{[(5Sa)-5-{3-chloro-2-methyl-4-[2-(4-methylpiperazin-1-yl)ethoxy]phenyl}-6-(3-methylphenyl)thieno[2,3-d]pyrimidin-4-yl]oxy}-3-(2-methoxyphenyl)propanoic acid], the IC50 was determined as 0.416 µM in test [1] (Homo sapiens, NCI-H929, 48 h) and 1.7e-08 M in test [2] (setting [4]).
`COc1ccc(F)cc1CC(Oc1ncnc2sc(-c3ccco3)c(-c3ccc(OCCN4CCN(C)CC4)c(Cl)c3C)c12)C(=O)O` [Example 345, (2R)-2-{[(5Sa)-5-{3-chloro-2-methyl-4-[2-(4-methylpiperazin-1-yl)ethoxy]phenyl}-6-(furan-2-yl)thieno[2,3-d]pyrimidin-4-yl]oxy}-3-(5-fluoro-2-methoxyphenyl)propanoic acid]: the concentration for half-maximal inhibition (IC50) in test [1] (Homo sapiens, NCI-H929, 48 h) amounted to 0.322 µM; in test [2] (setting [3]), 8.6e-09 M.
Take `Cc1c(-c2c(-c3ccco3)sc3ncnc(O[C@H](Cc4ccccc4OCc4ccco4)C(=O)O)c23)ccc(OCCN2CCN(C)CC2)c1Cl` [Example 244, (2R)-2-{[(5Sa)-5-{3-chloro-2-methyl-4-[2-(4-methylpiperazin-1-yl)ethoxy]phenyl}-6-(furan-2-yl)thieno[2,3-d]pyrimidin-4-yl]oxy}-3-[2-(furan-2-ylmethoxy)phenyl]propanoic acid]: the figures for the IC50 in test [1] and in test [2] (setting [3]) were 0.205 µM and 8.6e-09 M, respectively.
As to `Cc1c(-c2c(-c3ccco3)sc3ncnc(OC(Cc4ccccc4OCc4ccnn4C)C(=O)O)c23)ccc(OCCN2CCN(C)CC2)c1Cl` [Example 260, (2R)-2-{[(5Sa)-5-{3-chloro-2-methyl-4-[2-(4-methylpiperazin-1-yl)ethoxy]phenyl}-6-(furan-2-yl)thieno[2,3-d]pyrimidin-4-yl]oxy}-3-{2-[(1-methyl-1H-pyrazol-5-yl)methoxy]phenyl}propanoic acid], the concentration for half-maximal inhibition (IC50) amounted to 0.033 µM in test [1] (Homo sapiens, NCI-H929, 48 h) and 6.7e-09 M in test [2] (setting [3]).
With `Cc1c(-c2c(-c3ccc(Cl)o3)sc3ncnc(OC(Cc4ccccc4OCc4ccnc(N5CCOCC5)n4)C(=O)O)c23)ccc(OCCN2CCN(C)CC2)c1Cl` [Example 368, (2R)-2-{[6-(5-chlorofuran-2-yl)-(5Sa)-5-{3-chloro-2-methyl-4-[2-(4-methylpiperazin-1-yl)ethoxy]phenyl}thieno[2,3-d]pyrimidin-4-yl]oxy}-3-(2-{[2-(morpholin-4-yl)pyrimidin-4-yl]methoxy}phenyl)propanoic acid], the IC50 in test [1] (Homo sapiens, NCI-H929, 48 h) is 0.005 µM; in test [2] (setting [3]), 1.4e-08 M.
For `Cc1cnccc1-c1nccc(COc2ccccc2CC(Oc2ncnc3sc(-c4ccc(F)cc4)c(-c4ccc(OCCN(C)C)c(Cl)c4C)c23)C(=O)O)n1` [Example 137, (2R)-2-{[(5Sa)-5-{3-chloro-4-[2-(dimethylamino)ethoxy]-2-methylphenyl}-6-(4-fluorophenyl)thieno[2,3-d]pyrimidin-4-yl]oxy}-3-(2-{[2-(3-methylpyridin-4-yl)pyrimidin-4-yl]methoxy}phenyl)propanoic acid], in that order: 0.007 µM and 5.5e-09 M.
With `Cc1c(-c2c(-c3ccco3)sc3ncnc(OC(Cc4ccccc4OCc4ccnn4-c4ccccc4)C(=O)O)c23)ccc(OCCN2CCN(C)CC2)c1Cl` [Example 263, (2R)-2-{[(5Sa)-5-{3-chloro-2-methyl-4-[2-(4-methylpiperazin-1-yl)ethoxy]phenyl}-6-(furan-2-yl)thieno[2,3-d]pyrimidin-4-yl]oxy}-3-{2-[(1-phenyl-1H-pyrazol-5-yl)methoxy]phenyl}propanoic acid], the half-maximal inhibitory concentration (IC50) in test [1] (Homo sapiens, NCI-H929, 48 h) is 0.126 µM; in test [2] (setting [3]), 2e-09 M.
As to `COCCOc1ccccc1CC(Oc1ncnc2sc(-c3ccc(F)o3)c(-c3ccc(OCCN4CCN(C)CC4)c(Cl)c3C)c12)C(=O)O` [Example 194, (2R)-2-{[(5Sa)-5-{3-chloro-2-methyl-4-[2-(4-methylpiperazin-1-yl)ethoxy]phenyl}-6-(5-fluorofuran-2-yl)thieno[2,3-d]pyrimidin-4-yl]oxy}-3-[2-(2-methoxyethoxy)phenyl]propanoic acid], the 50% inhibitory concentration (IC50) was determined as 0.058 µM in test [1] (Homo sapiens, NCI-H929, 48 h) and 8e-09 M in test [2] (setting [3]).
As to `Cc1c(-c2c(-c3ccco3)sc3ncnc(OC(Cc4ccccc4F)C(=O)O)c23)ccc(OCCN2CCN(C)CC2)c1Cl` [Example 341, (2S)-2-{[(5Ra)-5-{3-chloro-2-methyl-4-[2-(4-methylpiperazin-1-yl)ethoxy]phenyl}-6-(furan-2-yl)thieno[2,3-d]pyrimidin-4-yl]oxy}-3-(2-fluorophenyl)propanoic acid], the results for the IC50 in test [1] and in test [2] (setting [3]) were 0.706 µM and 3.5e-08 M, respectively.
Take `Cc1c(-c2c(-c3ccc(Cl)o3)sc3ncnc(OC(Cc4ccccc4OCc4ccccn4)C(=O)O)c23)ccc(OCCN2CCN(C)CC2)c1Cl` [Example 366, (2R)-2-{[6-(5-chlorofuran-2-yl)-(5Sa)-5-{3-chloro-2-methyl-4-[2-(4-methylpiperazin-1-yl)ethoxy]phenyl}thieno[2,3-d]pyrimidin-4-yl]oxy}-3-[2-(pyridin-2-ylmethoxy)phenyl]propanoic acid]: the concentration for half-maximal inhibition (IC50) in test [1] (Homo sapiens, NCI-H929, 48 h) stood at 0.346 µM; in test [2] (setting [3]) it was 8.6e-09 M.
Turning to `Cc1c(-c2c(-c3ccc(F)o3)sc3ncnc(OC(Cc4ccccc4OCc4ccnn4C4CCCC4)C(=O)O)c23)ccc(OCCN2CCN(C)CC2)c1Cl` [Example 183, (2R)-2-{[(5Sa)-5-{3-chloro-2-methyl-4-[2-(4-methylpiperazin-1-yl)ethoxy]phenyl}-6-(5-fluorofuran-2-yl)thieno[2,3-d]pyrimidin-4-yl]oxy}-3-{2-[(1-cyclopentyl-1H-pyrazol-5-yl)methoxy]phenyl}propanoic acid], the IC50 came out at 0.012 µM in test [1] (Homo sapiens, NCI-H929, 48 h) and 5.7e-09 M in test [2] (setting [3]).
For `Cc1c(-c2c(-c3ccc(F)cc3)sc3ncnc(OC(Cc4ccccc4OCc4ccnc(-c5ccncc5)n4)C(=O)O)c23)ccc(OCCN(C)C)c1Cl` [Example 128, (2R)-2-{[(5Sa)-5-{3-chloro-4-[2-(dimethylamino)ethoxy]-2-methylphenyl}-6-(4-fluorophenyl)thieno[2,3-d]pyrimidin-4-yl]oxy}-3-(2-{[2-(pyridin-4-yl)pyrimidin-4-yl]methoxy}phenyl)propanoic acid], in that order: 0.018 µM and 4e-09 M.
Taken in the same sequence, the figures for `Cc1c(-c2c(-c3ccc(F)o3)sc3ncnc(OC(Cc4ccccc4OCC(F)(F)F)C(=O)O)c23)ccc(OCCN(C)C)c1Cl` [Example 200, (2R)-2-{[(5Sa)-5-{3-chloro-4-[2-(dimethylamino)ethoxy]-2-methylphenyl}-6-(5-fluorofuran-2-yl)thieno[2,3-d]pyrimidin-4-yl]oxy}-3-[2-(2,2,2-trifluoroethoxy)phenyl]propanoic acid] were 0.106 µM and 6.1e-09 M.
In the case of `COc1ccccc1Cn1nccc1COc1ccccc1CC(Oc1ncnc2sc(-c3ccc(F)cc3)c(-c3ccc(OCCN4CCN(C)CC4)c(Cl)c3C)c12)C(=O)O` [Example 739, (2R)-2-{[(5Sa)-5-{3-chloro-2-methyl-4-[2-(4-methylpiperazin-1-yl)ethoxy]phenyl}-6-(4-fluorophenyl)thieno[2,3-d]pyrimidin-4-yl]oxy}-3-(2-{[1-(2-methoxybenzyl)-1H-pyrazol-5-yl]methoxy}phenyl)propanoic acid], the concentration for half-maximal inhibition (IC50) in test [1] (Homo sapiens, NCI-H929, 48 h) came to 0.093 µM; in test [2] (setting [4]), 2.32e-09 M.
As for `Cc1c(-c2c(-c3ccco3)sc3ncnc(OC(Cc4ccccc4F)C(=O)O)c23)ccc(OCCN2CCN(C)CC2)c1Cl` [Example 357, (2R)-2-{[(5Sa)-5-{3-chloro-2-methyl-4-[2-(4-methylpiperazin-1-yl)ethoxy]phenyl}-6-(furan-2-yl)thieno[2,3-d]pyrimidin-4-yl]oxy}-3-(2-fluorophenyl)propanoic acid], the half-inhibitory concentration (IC50) was 3.39 µM in test [1] and 5.5e-07 M in test [2] (setting [3]).
For `COc1cccc(COc2ccccc2CC(Oc2ncnc3sc(-c4ccco4)c(-c4ccc(OCCN5CCN(C)CC5)c(Cl)c4C)c23)C(=O)O)n1` [Example 238, (2R)-2-{[(5Sa)-5-{3-chloro-2-methyl-4-[2-(4-methylpiperazin-1-yl)ethoxy]phenyl}-6-(furan-2-yl)thieno[2,3-d]pyrimidin-4-yl]oxy}-3-{2-[(6-methoxypyridin-2-yl)methoxy]phenyl}propanoic acid], the half-inhibitory concentration (IC50) in test [1] (Homo sapiens, NCI-H929, 48 h) worked out at 0.077 µM; in test [2] (setting [3]), 5.9e-09 M.
With `COc1ccccc1-c1nccc(COc2ccccc2CC(Oc2ncnc3sc(-c4ccc(OCc5cccnc5)cc4)c(-c4ccc(OCCN5CCN(C)CC5)c(Cl)c4C)c23)C(=O)O)n1` [Example 772, (2R)-2-[((5Sa)-5-{3-chloro-2-methyl-4-[2-(4-methylpiperazin-1-yl)ethoxy]phenyl}-6-[4-(pyridin-3-ylmethoxy)phenyl]thieno[2,3-d]pyrimidin-4-yl)oxy]-3-(2-{[2-(2-methoxyphenyl)pyrimidin-4-yl]methoxy}phenyl)propanoic acid], the half-inhibitory concentration (IC50) is 0.01 µM in test [1] (Homo sapiens, NCI-H929, 48 h) and 9.48e-10 M in test [2] (setting [4]).

Source of the values: patent publication US9670227B2, “Thienopyrimidine derivatives, a process for their preparation and pharmaceutical compositions containing them” (LES LABORATOIRES SERVIER, priority 2013, dated 2017).
